In one experiment the target is Human JAK-2 (Homo sapiens, UniProt O60674). In words: JAK enzymatic assay (Eurofins KinaseProfiler/IC50Profiler, radiometric), JAK-2. Type of experiment: biochemical. The settings on record: human JAK-2 enzyme, 9 concentrations; read-out: JAK2 affinity (IC50) category.
In another experiment the target is JAK-1 (Homo sapiens, UniProt P23458). In words: JAK enzymatic assay (Eurofins KinaseProfiler/IC50Profiler, radiometric), JAK-1. The settings on record: for JAK1/JAK2 selectivity: selectivity IC50 ratio for JAK1 versus JAK2, human enzymes.

The structures appear in SMILES notation.

Sequence of JAK-1 (P23458 whole entry): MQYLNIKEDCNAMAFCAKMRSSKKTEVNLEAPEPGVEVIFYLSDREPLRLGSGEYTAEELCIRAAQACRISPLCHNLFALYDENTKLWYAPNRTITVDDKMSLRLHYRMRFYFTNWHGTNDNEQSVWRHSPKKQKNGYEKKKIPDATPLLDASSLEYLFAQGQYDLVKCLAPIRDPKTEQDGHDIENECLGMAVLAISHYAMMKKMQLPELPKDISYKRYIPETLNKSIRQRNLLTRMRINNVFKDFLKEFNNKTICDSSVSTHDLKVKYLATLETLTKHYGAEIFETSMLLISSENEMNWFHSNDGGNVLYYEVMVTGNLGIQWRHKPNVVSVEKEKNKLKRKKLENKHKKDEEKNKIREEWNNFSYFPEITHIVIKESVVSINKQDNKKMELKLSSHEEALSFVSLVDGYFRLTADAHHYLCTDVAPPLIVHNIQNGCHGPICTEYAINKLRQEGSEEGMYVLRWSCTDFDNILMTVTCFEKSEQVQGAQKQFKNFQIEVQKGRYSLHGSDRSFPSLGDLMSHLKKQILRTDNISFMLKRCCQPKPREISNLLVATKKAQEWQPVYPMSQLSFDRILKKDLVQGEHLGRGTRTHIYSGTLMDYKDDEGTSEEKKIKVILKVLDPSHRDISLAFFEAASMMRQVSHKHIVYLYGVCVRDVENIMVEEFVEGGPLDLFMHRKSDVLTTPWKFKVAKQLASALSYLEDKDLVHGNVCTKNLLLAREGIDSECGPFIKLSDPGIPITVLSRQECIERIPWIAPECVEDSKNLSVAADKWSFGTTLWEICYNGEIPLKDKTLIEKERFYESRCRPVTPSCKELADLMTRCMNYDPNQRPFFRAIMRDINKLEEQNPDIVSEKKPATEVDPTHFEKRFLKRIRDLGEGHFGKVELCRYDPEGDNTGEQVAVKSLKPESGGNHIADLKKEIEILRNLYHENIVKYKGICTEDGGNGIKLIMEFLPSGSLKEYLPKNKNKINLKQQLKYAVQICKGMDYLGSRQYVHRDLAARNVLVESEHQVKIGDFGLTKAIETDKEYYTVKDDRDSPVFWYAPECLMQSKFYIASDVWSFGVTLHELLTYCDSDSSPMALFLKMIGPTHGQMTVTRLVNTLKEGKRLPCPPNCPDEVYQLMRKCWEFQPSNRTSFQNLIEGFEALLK
Sequence of Human JAK-2 (O60674 whole entry): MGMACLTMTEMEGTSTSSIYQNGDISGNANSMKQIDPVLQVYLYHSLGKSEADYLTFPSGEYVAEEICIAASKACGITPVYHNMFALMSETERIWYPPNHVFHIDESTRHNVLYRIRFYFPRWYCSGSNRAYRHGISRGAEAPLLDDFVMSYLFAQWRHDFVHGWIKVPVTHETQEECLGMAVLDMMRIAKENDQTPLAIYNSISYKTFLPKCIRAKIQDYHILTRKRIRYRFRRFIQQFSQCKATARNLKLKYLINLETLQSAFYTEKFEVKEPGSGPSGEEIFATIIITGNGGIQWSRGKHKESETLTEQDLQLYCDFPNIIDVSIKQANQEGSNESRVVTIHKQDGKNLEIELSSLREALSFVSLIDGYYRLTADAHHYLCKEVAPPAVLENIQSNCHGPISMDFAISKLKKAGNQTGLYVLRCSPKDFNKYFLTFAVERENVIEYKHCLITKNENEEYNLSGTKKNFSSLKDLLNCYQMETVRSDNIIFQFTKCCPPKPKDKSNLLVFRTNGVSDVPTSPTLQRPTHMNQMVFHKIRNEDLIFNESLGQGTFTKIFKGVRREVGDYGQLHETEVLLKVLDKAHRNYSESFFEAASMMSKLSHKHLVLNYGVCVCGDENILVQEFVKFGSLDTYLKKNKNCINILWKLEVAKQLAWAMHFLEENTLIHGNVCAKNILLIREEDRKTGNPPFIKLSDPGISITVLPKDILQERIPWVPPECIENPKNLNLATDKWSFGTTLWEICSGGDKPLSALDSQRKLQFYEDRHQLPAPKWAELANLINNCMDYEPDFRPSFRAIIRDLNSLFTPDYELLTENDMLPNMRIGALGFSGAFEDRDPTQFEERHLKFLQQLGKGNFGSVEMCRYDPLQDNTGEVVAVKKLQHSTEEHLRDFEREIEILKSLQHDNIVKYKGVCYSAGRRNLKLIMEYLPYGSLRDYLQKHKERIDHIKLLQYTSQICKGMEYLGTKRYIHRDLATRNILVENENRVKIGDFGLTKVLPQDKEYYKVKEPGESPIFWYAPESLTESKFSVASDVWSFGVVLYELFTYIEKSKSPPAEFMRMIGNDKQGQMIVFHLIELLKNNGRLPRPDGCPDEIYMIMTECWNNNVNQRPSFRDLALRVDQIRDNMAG
Description for Human JAK-2: (§1) All enzyme assays were conducted according to Eurofins Discovery's KinaseProfiler™ and IC50Profiler™ services.
(SEQ ID NO: 2) peptide substrate, 10 mM magnesium acetate and [gamma-33P]-ATP (specific activity and concentration as required). The reaction was initiated by the addition of the Mg/ATP mix. After incubation for 40 minutes at room temperature, the reaction was stopped by the addition of phosphoric acid to a concentration of 0.5%. An aliquot of the reaction was then spotted onto a filter and washed four times for 4 minutes in 0.425% phosphoric acid and once with methanol prior to drying and scintillation counting.
Data was then imported into an internal application where each data point was expressed as % inhibition based on uninhibited and no enzyme controls.
Description for JAK-1: as §1
(SEQ ID NO.: 1) peptide substrate, 10 mM magnesium acetate and [gamma-33P]-ATP (specific activity and concentration as required). The reaction was initiated by the addition of the Mg/ATP mix. After incubation for 40 minutes at room temperature, the reaction was stopped by the addition of phosphoric acid to a concentration of 0.5%. An aliquot of the reaction was then spotted onto a filter and washed four times for 4 minutes in 0.425% phosphoric acid and once with methanol prior to drying and scintillation counting. A known inhibitor, Staurosporine, was used as a positive control for the assay.
Data was then imported into an internal application where each data point was expressed as % inhibition based on uninhibited and no enzyme controls. […] Inhibition values for the JAK enzymes (IC50 values) for each compound were stratified into four groups.

On to `CCN(CC)S(=O)(=O)c1ccc(NC(=O)CN2CCN(c3ncnc4[nH]ccc34)CC2)cc1` [Compound 15, 2-(4-(7H-pyrrolo[2,3-d]pyrimidin-4-yl)piperazin-1-yl)-N-(4-(N,N-diethylsulfamoyl)phenyl)acetamide], for which the IC50 at Human JAK-2 is more than 1000 nM. Also, at JAK-1, the IC50 was in the range of 250 to 500 nM and the JAK1/JAK2 selectivity stood at 9.
The like results for `O=C(Nc1ccccc1)C1CCN(C(=O)CN2CCN(c3ncnc4[nH]ccc34)CC2)CC1` [Compound 16, 1-(2-(4-(7H-pyrrolo[2,3-d]pyrimidin-4-yl)piperazin-1-yl)acetyl)-N-phenylpiperidine-4-carboxamide] were, in that order, more than 1000 nM, 250 to 500 nM and 19.
As to `CC1CCCN(C(=O)C2CCN(C(=O)CN3CCN(c4nc[nH]c5nccc4-5)CC3)CC2)C1` (stereo not shown) [Compound 23, 1-[4-(3-methylpiperidine-1-carbonyl)piperidin-1-yl]-2-(4-[1H-pyrrolo[2,3-d]pyrimidin-4-yl]piperazin-1-yl)ethan-1-one], the IC50 on Human JAK-2 and on JAK-1 was more than 1000 nM in each case.
Turning to `CC(C)N(C)C(=O)C1CCN(C(=O)CN2CCN(c3nc[nH]c4nccc3-4)CC2)CC1` [Compound 24, N-methyl-N-(propan-2-yl)-1-[2-(4-{1H-pyrrolo[2,3-d]pyrimidin-4-yl}piperazin-1-yl)acetyl]piperidine-4-carboxamide], the IC50 at Human JAK-2 and against JAK-1 was more than 1000 nM throughout.
Consider `O=C(CN1CCN(c2nc[nH]c3nccc2-3)CC1)Nc1ccc(S(=O)(=O)Nc2ncccn2)cc1` [Compound 25, N-{4-[(pyrimidin-2-yl)sulfamoyl]phenyl}-2-(4-{1H-pyrrolo[2,3-d]pyrimidin-4-yl}piperazin-1-yl)acetamide], for which the IC50 at Human JAK-2 and against JAK-1 was less than 250 nM each time. On JAK-1, the JAK1/JAK2 selectivity came out at 1.
For `O=C(CN1CCN(c2nc[nH]c3nccc2-3)CC1)N1CCC(Cc2ccccc2)CC1` [Compound 26, 1-(4-benzylpiperidin-1-yl)-2-(4-{1H-pyrrolo[2,3-d]pyrimidin-4-yl}piperazin-1-yl)ethan-1-one], on Human JAK-2, the IC50 is more than 1000 nM. In addition, on JAK-1, the IC50 was in the range of 250 to 500 nM and the JAK1/JAK2 selectivity is reported as more than 22.
The like results for `NS(=O)(=O)c1cccc(NC(=O)CN2CCN(c3nc[nH]c4nccc3-4)CC2)c1` [Compound 27, 2-(4-{1H-pyrrolo[2,3-d]pyrimidin-4-yl}piperazin-1-yl)-N-(3-sulfamoylphenyl)acetamide] were, in that order, more than 1000 nM, less than 250 nM and 14.
For the molecule `O=C(CN1CCN(c2nc[nH]c3nccc2-3)CC1)N1CCN(C(=O)Nc2ccccc2)CC1` [Compound 28, N-phenyl-4-[2-(4-{1H-pyrrolo[2,3-d]pyrimidin-4-yl}piperazin-1-yl)acetyl]piperazine-1-carboxamide], the IC50 on Human JAK-2 is more than 1000 nM. In addition, at JAK-1, the IC50 was 250 to 500 nM and the JAK1/JAK2 selectivity is recorded as 19.
Taken in the same sequence, the figures for `CN(C)S(=O)(=O)c1cccc(NC(=O)CN2CCN(c3nc[nH]c4nccc3-4)CC2)c1` [Compound 29, N-[3-(dimethylsulfamoyl)phenyl]-2-(4-{1H-pyrrolo[2,3-d]pyrimidin-4-yl}piperazin-1-yl)acetamide] were more than 1000 nM, 500 to 1000 nM and 11.
The like results for `O=C(CN1CCN(c2nc[nH]c3nccc2-3)CC1)Nc1cccc(S(=O)(=O)N2CCOCC2)c1` [Compound 30, N-[3-(morpholine-4-sulfonyl)phenyl]-2-(4-{1H-pyrrolo[2,3-d]pyrimidin-4-yl}piperazin-1-yl)acetamide] were, in that order, more than 1000 nM, more than 1000 nM and 6.
Consider `O=C(CN1CCN(c2nc[nH]c3nccc2-3)CC1)Nc1ccc(S(=O)(=O)N2CCCCC2)cc1` [Compound 31, N-[4-(piperidine-1-sulfonyl)phenyl]-2-(4-{1H-pyrrolo[2,3-d]pyrimidin-4-yl}piperazin-1-yl)acetamide], for which the figures for the IC50 on Human JAK-2 and against JAK-1 were more than 1000 nM and less than 250 nM, respectively. For the same molecule, the JAK1/JAK2 selectivity on JAK-1 was 4.
The like results for `O=C(CN1CCN(c2nc[nH]c3nccc2-3)CC1)Nc1cccc(S(=O)(=O)N2CCCC2)c1` [Compound 32, N-[3-(pyrrolidine-1-sulfonyl)phenyl]-2-(4-{1H-pyrrolo[2,3-d]pyrimidin-4-yl}piperazin-1-yl)acetamide] were, in that order, more than 1000 nM, 250 to 500 nM and 23.
The like results for `O=C(CN1CCN(c2nc[nH]c3nccc2-3)CC1)Nc1ccc(/N=N/c2ccccc2)cc1` [Compound 33, N-[4-(2-phenyldiazen-1-yl)phenyl]-2-(4-{1H-pyrrolo[2,3-d]pyrimidin-4-yl}piperazin-1-yl)acetamide] were, in that order, more than 1000 nM, less than 250 nM and more than 100.
Taken in the same sequence, the figures for `CN(C)S(=O)(=O)c1cc(NC(=O)CN2CCN(c3nc[nH]c4nccc3-4)CC2)ccc1Cl` [Compound 34, N-[4-chloro-3-(dimethylsulfamoyl)phenyl]-2-(4-{1H-pyrrolo[2,3-d]pyrimidin-4-yl}piperazin-1-yl)acetamide] were more than 1000 nM, 250 to 500 nM and 23.
As for `Cc1ccc(NC(=O)CN2CCN(c3nc[nH]c4nccc3-4)CC2)cc1S(=O)(=O)N(C)C` [Compound 35, N-[3-(dimethylsulfamoyl)-4-methylphenyl]-2-(4-{1H-pyrrolo[2,3-d]pyrimidin-4-yl}piperazin-1-yl)acetamide], the IC50 on Human JAK-2 was more than 1000 nM. Moreover, at JAK-1, the IC50 was 500 to 1000 nM and the JAK1/JAK2 selectivity is given as 11.
Taken in the same sequence, the figures for `CC(C(=O)Nc1cccc(S(=O)(=O)N(C)C)c1)N1CCN(c2nc[nH]c3nccc2-3)CC1` (stereo not shown) [Compound 36] were more than 1000 nM, more than 1000 nM and 9.
The like results for `CC(C)N(C)S(=O)(=O)c1ccc(NC(=O)CN2CCN(c3nc[nH]c4nccc3-4)CC2)cc1` [Compound 37, N-{4-[methyl(propan-2-yl)sulfamoyl]phenyl}-2-(4-{1H-pyrrolo[2,3-d]pyrimidin-4-yl}piperazin-1-yl)acetamide] were, in that order, more than 1000 nM, 250 to 500 nM and 15.
Taken in the same sequence, the figures for `NS(=O)(=O)c1cccc(NC(=O)CCN2CCN(c3nc[nH]c4nccc3-4)CC2)c1` [Compound 38] were more than 1000 nM, 500 to 1000 nM and 6.
Consider `O=C(CCN1CCN(c2nc[nH]c3nccc2-3)CC1)Nc1cccc(S(=O)(=O)N2CCCC2)c1` [Compound 39], for which the IC50 at Human JAK-2 is more than 1000 nM; on JAK-1, 500 to 1000 nM. Besides, at JAK-1, the JAK1/JAK2 selectivity was 1.
Taken in the same sequence, the figures for `CN(C)S(=O)(=O)c1ccc(NC(=O)CCN2CCN(c3nc[nH]c4nccc3-4)CC2)cc1` [Compound 40] were more than 1000 nM, 250 to 500 nM and 11.
Taken in the same sequence, the figures for `CN(C)S(=O)(=O)c1ccccc1CNC(=O)CN1CCN(c2nc[nH]c3nccc2-3)CC1` [Compound 41, N-{[2-(dimethylsulfamoyl)phenyl]methyl}-2-(4-{1H-pyrrolo[2,3-d]pyrimidin-4-yl}piperazin-1-yl)acetamide] were more than 1000 nM, 500 to 1000 nM and 10.

What is called IC50 is the point on the concentration scale where inhibition reaches its midpoint.

Values taken from US20260092070A1, “INHIBITORS OF CANINE JANUS KINASE AND USES THEREOF” (ANIMOL DISCOVERY, INC., priority 2023, published 2026).
